Data reported in patent US20130273196A1, “Pet Food Compositions for Inducing a Satiety Response” (HILL'S PET NUTRITION, INC, priority 2010, published 2013).

How the values were obtained:
NPY5R = assay: Affymetrix canine GeneChip gene expression analysis in canine cell lines, NPY5R; assay type: cell-based
Procedure: Gene expression was analyzed using Affymetrix Canine 1 and Canine 2 GeneChip Arrays available commercially from Affymetrix, Inc., Santa Clara, Calif. 95051. Total RNA is reverse transcribed into cDNA. The cDNA is used to generate cRNA which is fragmented and used as probes for GeneChip hybridization. The gene chip is washed and the hybridization signal is measured with an Affymetrix laser scanner. The hybridization data is then validated and normalized for further analysis. Materials: Affymetrix provided most of the reagents and kit. Other reagents listed in the Affymetrix Manual but not supplied in the kit were obtained separately. Refer to GeneChip Expression Analysis Technical Manual (701021 Rev. 4) for the details. Equipment: Eppendorf Microcentrifuge, 1.5 mL DNase and RNase free/sterile microcentrifuge tubes, 50 mL DNase and RNase free/sterile disposable polypropylene tubes, P1000, […] and P2 Rainin Pipetman pipettes, Filter pipette tips for P1000, […] and P2 pipettes, DNase and RNase free/sterile, and Peltier Thermal Cycler PTC-200. Procedure: All procedures followed exactly as described in GeneChip Expression Analysis Technical Manual (Affymetrix Copyright 1999-2003). 5 micrograms of total RNA were used for the first strand cDNA synthesis. Used either Peltier Thermal Cycler PTC-200 or heat block for temperature control on reactions and probe denaturing. The quality control was performed using RNA NanoDrop chips with BioAnalyer 2100. Used 100 Format (Midi Array) for the canine genechip. […] The solvent at the higher of the two concentrations was used as a control. […] Gene expression was measured for the treatment cell lines and controls. The gene expression data was determined to be either “up” or “down”-regulated for any given treatment. The decision on whether a gene is “up” or “down” is based on the fold change, which is calculated as treatment intensity/control intensity for each individual probe.

NPY1R = assay: Affymetrix canine GeneChip gene expression analysis in canine cell lines, NPY1R; assay type: cell-based; details: in two cell lines tested, amount tested 0.005 mg/mL, 0.025 mg/mL
Procedure: Gene expression was analyzed using Affymetrix Canine 1 and Canine 2 GeneChip Arrays available commercially from Affymetrix, Inc., Santa Clara, Calif. 95051. Total RNA is reverse transcribed into cDNA. The cDNA is used to generate cRNA which is fragmented and used as probes for GeneChip hybridization. The gene chip is washed and the hybridization signal is measured with an Affymetrix laser scanner. The hybridization data is then validated and normalized for further analysis.
Materials: Affymetrix provided most of the reagents and kit. Other reagents listed in the Affymetrix Manual but not supplied in the kit were obtained separately. Refer to GeneChip Expression Analysis Technical Manual (701021 Rev. 4) for the details. […]
Affymetrix canine gene chips Canine-1 and Canine-2 are used to determine the effect of various test substances or ingredients on gene expression in four canine cell lines and appropriate controls. […] Gene expression was measured for the treatment cell lines and controls. The gene expression data was determined to be either “up” or “down”-regulated for any given treatment. The decision on whether a gene is “up” or “down” is based on the fold change, which is calculated as treatment intensity/control intensity for each individual probe.

For `CC/C=C\C/C=C\C/C=C\C/C=C\C/C=C\CCCC(=O)O` [EPA], the Fold change (NPY5R; in two cell lines tested, amount tested 0.005 mg/mL, 0.025 mg/mL) was −1.82 (in two cell lines and the Fold change (NPY1R) was −1.43 (in two cell lines.

`O=C(O[C@@H]1Cc2c(O)cc(O)cc2O[C@@H]1c1cc(O)c(O)c(O)c1)c1cc(O)c(O)c(O)c1` [Epigallocatechin Gallate, epigallocatechin gallate] was tested, and the Fold change (NPY5R; in all cell lines tested, amount tested 20 ng/mL, 80 ng/mL, fold change = treatment intensity/control intensity) was −1.33 (in all cell lines.

`O=c1cc(-c2ccc(O)c(O)c2)oc2cc(O)cc(O)c12` [Luteolin, luteolin] was tested, and the Fold change (NPY5R; in two cell lines tested, amount tested 1 uM, 10 uM) was 1.56 (in two cell lines tested).
